Key:
[1] = target: GCN2 kinase (Homo sapiens, UniProt Q9P2K8); assay: GCN2 enzyme inhibition assay (Transcreener ADP2 fluorescence polarization); type: biochemical; conditions: 280 μM ATP, 4 nM GCN2 kinase
Outline: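 Inhibition of 4 nM GCN2 was measured with compound up to 8 μM final, ATP 280 μM and (RS)7 peptide 200 μM over a 1 h, 25 °C reaction. ADP FP readout; IC50 and Ki(app) calculated from percent inhibition.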

[2] = target: intracellular GCN2 (phosphorylation of the GCN2 substrate eIF2α) (Homo sapiens, UniProt Q9P2K8); assay: GCN2 cellular inhibition assay (AlphaScreen SureFire P-eIF2α Ser51, borrelidin-treated U2OS cells); type: cell-based; conditions: biomarker assay, phosphorylated eIF2α Ser51 in borrelidin-treated U2OS cells
intracellular GCN2 (phosphorylation of the GCN2 substrate eIF2α), sequence (Q9P2K8 whole entry): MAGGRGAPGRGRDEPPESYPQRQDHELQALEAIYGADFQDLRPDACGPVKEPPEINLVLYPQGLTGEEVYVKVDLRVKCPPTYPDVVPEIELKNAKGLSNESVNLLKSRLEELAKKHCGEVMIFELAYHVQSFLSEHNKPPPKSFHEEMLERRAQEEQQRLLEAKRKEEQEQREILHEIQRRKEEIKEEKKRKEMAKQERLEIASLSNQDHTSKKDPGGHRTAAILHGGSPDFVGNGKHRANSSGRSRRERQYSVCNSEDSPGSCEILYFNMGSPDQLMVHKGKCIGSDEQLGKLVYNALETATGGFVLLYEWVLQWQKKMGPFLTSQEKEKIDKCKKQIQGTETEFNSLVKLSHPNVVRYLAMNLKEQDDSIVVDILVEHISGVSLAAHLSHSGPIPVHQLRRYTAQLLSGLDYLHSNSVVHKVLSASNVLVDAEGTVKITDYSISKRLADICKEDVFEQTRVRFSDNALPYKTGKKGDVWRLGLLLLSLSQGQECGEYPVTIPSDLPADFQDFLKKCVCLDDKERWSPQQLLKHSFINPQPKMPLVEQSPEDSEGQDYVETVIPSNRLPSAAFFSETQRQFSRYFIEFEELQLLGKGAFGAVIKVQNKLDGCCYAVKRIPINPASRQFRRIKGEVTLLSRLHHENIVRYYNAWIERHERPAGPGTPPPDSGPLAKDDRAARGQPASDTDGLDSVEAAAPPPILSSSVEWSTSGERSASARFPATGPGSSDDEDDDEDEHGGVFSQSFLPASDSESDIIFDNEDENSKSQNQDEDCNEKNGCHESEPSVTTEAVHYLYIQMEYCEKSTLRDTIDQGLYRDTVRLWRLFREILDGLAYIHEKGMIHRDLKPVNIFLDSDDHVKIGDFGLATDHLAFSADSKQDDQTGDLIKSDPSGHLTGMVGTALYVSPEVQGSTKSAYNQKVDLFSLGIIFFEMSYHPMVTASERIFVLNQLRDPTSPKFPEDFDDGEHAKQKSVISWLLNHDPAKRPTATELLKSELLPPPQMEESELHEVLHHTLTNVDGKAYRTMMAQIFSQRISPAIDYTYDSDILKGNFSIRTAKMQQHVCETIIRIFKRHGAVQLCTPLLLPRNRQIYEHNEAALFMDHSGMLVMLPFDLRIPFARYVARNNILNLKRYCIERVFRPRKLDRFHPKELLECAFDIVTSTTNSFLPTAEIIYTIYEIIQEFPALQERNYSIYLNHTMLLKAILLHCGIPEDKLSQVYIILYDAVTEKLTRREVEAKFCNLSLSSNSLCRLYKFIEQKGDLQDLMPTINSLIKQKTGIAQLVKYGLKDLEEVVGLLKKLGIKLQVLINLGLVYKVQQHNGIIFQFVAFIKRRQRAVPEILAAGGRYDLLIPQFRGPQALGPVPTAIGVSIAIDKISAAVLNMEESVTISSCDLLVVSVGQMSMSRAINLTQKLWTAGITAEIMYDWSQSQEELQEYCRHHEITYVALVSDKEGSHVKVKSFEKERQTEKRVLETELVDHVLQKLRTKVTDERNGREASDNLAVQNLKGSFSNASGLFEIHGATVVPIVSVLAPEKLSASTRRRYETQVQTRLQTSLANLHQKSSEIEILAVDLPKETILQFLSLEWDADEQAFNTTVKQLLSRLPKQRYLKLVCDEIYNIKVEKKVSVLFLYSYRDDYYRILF
Outline: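 Read-out: AlphaScreen SureFire phospho-eIF2α (Ser51) signal in U2OS lysates. Cells get 4-fold compound dilutions (top 40 μM final) plus 10 μM borrelidin, 1 h, 37 °C. Percent inhibition is relative to borrelidin-alone controls.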

[3] = tested on: primary human pan T-cells; assay: Human IL-2 assay for GCN2 inhibition (IL-2 secretion by T cells in low amino acid condition); type: cell-based; conditions: T-cell; IL-2 secretion from human T cells, anti-CD3/CD28 stimulation, 96 hours; read-out: IL2/T-cell EC50
Source text: Tumor microenvironment is profoundly immuno-suppressive. This may be attributed to the depletion of amino acids (like arginine and tryptophan) which triggers the activation of GCN2 in immune cells, including T cell and myeloid cells. In T cells, activation of GCN2 leads to reduce effector functions of CD8 T cells and induction and/or maintenance of immuno-suppressive T-regs. Inhibition of that immuno-suppressive response by GCN2 inhibitors enables an anti-cancer immune response by activating effector T-cells. Herein we describe an in-vitro system we established using human T-cells stimulated in low amino acid condition in order to engage the GCN2 biology. The method described involves the modulation of IL-2 levels secreted by human T cells in responses to the GCN2 inhibitors disclosed herein.
Amino acid-free RPMI was reconstituted with all but one of the amino acids found in standard RMPI (e.g. Arginine, Tryptophan), 10% charcoal-stripped fetal bovine serum, 100 Units/mL penicillin and 0.1 mg/mL streptomycin. Primary human pan T-cells were isolated using Pan T Cell Isolation Kit, human (MACS Miltenyi biotech Cat #Order no. 130-096-535) from apheresis cones and 5×104 pan T-cells per well. The purified T cells are seeded in Nunc™ 96-Well Polystyrene Round Bottom Microwell Plates (the cells are rested in No TRP media in a 15 ml falcon tube in the incubator for 30-45 minutes while titrations for tryptophan and the GCN2 inhibitor compound are made) A plate matrix was developed to titrate both a GCN2 inhibitor and the amino acid of interest ranging from “No Amino Acid” condition, up to the concentration found in the regular RPMI media (20 μM for TRP and 950 μM for Arginine). The cells were incubated for 30 min at 37° C. with the GCN2 inhibitor and then stimulated with 5×104 anti-CD3/CD28 Dynabeads® per well. After 96 hours of incubation the IL-2 level in the supernatant were measured using ELISA (R&D systems Cat #DY202 (Human IL-2 DuoSet ELISA). Data were plotted in GraphPad Prism software and EC50 is calculated.

GCN2 kinase, sequence (Q9P2K8 whole entry): as above

| SMILES | IC50 ([1]; compounds of Formula IV) [nM] | IC50 ([2]; compounds of Formula IV) [nM] | EC50 [3] [nM] | IC50 ([1]; compounds of Formula II) [nM] | IC50 ([2]; compounds of Formula II) [nM] |
| --- | --- | --- | --- | --- | --- |
| Cc1n[nH]cc1[C@@H]1CN(c2ccnc(-c3cnc4cnc(C(F)(F)F)cn34)n2)C[C@H](C)O1 (stereo in doubt) [IV-763, (2S,6R)-2-methyl-6-(3-methyl-1H-pyrazol-4-yl)-4-(2-(6-(trifluoromethyl)imidazo[1,2-a]pyrazin-3-yl)pyrimidin-4-yl)morpholine] | < 10 | < 500 | 100 to 500 |  |  |
| C[C@H]1[C@@H](CNS(C)(=O)=O)N(C2CC2)CCN1c1cc(-c2cnc3ccc(C(F)F)nn23)ncn1 [II-752, N-(((2R,3S)-1-cyclopropyl-4-(6-(6-(difluoromethyl)imidazo[12-b]pyridazin-3-yl)pyrimidin-4-yl)-3-methylpiperazin-2-yl)methyl)methanesulfonamide] |  |  | < 100 | < 10 | < 500 |
| C[C@H]1C[C@@H](c2c[nH]nc2F)CN(c2ccnc(-c3cnc4cnc(C(F)(F)F)cn34)n2)C1 [IV-767] | < 10 | < 500 | 100 to 500 |  |  |
| Cc1[nH]ncc1[C@H]1CN(c2cc(-c3cnc4ccc(C(F)(F)F)nn34)ncn2)C[C@@H](C)O1 [II-768, (2R,6S)-2-methyl-6-(5-methyl-1H-pyrazol-4-yl)-4-(6-(6-(trifluoromethyl)imidazo[1,2-b]pyridazin-3-yl)pyrimidin-4-yl)morpholine] |  |  | > 500 | < 10 | < 500 |

— patent publication US10988477B2 (Merck Patent GmbH, priority 2018, dated 2021)
